Assay [1] deals with T1, E. coli enolase (Escherichia coli, UniProt P0A6P9). The assay can be described thus: enolase assay, % inhibition at […]. Type of assay: biochemical. The following applies: read-out: % inhibition at 20 μM.
Target sequence in this assay (P0A6P9 2-432): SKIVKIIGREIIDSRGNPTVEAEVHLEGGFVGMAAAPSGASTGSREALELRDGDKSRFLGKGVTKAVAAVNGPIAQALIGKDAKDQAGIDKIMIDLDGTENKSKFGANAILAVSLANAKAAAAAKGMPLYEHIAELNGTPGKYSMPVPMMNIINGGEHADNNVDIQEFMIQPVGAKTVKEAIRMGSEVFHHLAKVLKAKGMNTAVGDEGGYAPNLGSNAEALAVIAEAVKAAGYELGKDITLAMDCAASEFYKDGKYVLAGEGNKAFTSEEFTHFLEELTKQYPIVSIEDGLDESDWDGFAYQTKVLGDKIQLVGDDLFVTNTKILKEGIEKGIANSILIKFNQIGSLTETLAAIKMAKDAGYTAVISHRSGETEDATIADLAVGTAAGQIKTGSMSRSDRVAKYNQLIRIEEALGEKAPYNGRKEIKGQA
The target of assay [2] is T1, E. coli enolase. Nature of the assay: X-ray crystal structure, […] Å. The class given is binding.
Target sequence in this assay (P0A6P9 whole entry): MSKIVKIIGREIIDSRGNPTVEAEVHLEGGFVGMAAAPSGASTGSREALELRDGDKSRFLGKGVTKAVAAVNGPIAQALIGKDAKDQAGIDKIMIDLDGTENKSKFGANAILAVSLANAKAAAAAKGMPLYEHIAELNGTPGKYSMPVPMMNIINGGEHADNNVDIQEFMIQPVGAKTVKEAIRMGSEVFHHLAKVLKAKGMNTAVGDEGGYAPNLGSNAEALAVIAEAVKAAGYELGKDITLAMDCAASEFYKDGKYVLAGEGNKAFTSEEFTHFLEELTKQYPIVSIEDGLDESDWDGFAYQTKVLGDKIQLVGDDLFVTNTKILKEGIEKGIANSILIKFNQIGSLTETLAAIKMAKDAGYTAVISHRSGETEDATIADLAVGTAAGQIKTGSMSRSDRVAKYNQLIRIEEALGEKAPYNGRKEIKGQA

Broadly, the inhibition is how much of the control response was suppressed.

For `NCCOCCOCCNC(=O)Cc1ccc(Nc2nc(NCc3ccc(F)cc3)nc(NCC3CCCCC3)n2)cc1` [compound 41, ENOblock], the inhibition at 20 µM on E. coli enolase [1] came out at 41%.

On to `O=C(O)C(CO)OP(=O)(O)O` (centres unmarked) [2-PGA], for which the “X-ray crystal structure, 1.8 Å” value on E. coli enolase [2] was “we observe a fully occupied active site with 2-PGA and two Mg-ions bound (PDB 6BFy)”.

The values are drawn from publication PMC6511404 (Biochemistry, 2019).
